From article PMC8352872, “Biochemical and structural studies of target lectin SapL1 from the emerging opportunistic microfungus Scedosporium apiospermum” (Scientific Reports, 2021)

Experiments:
SapL1 [1] = molecular target: T1, SapL1 (Scedosporium apiospermum, UniProt A0A084FYP2); test: ITC (stoichiometry fixed to […]); type: binding
T1 construct: gene SAPIO_CDS9261; carbohydrate recognition domain, residues 75-369

SapL1 [2] = molecular target: T1, SapL1; test: (X-ray) and ITC (stoichiometry fixed to […]); type: binding
[3] = molecular target: the molecule itself; test: dynamic light scattering; protein at 1 mg/mL in 50 mM Tris-HCl, 100 mM NaCl, pH 8.5, measured in triplicate after centrifugation; data not shown

For C[C@@H]1OC(O)[C@@H](O)[C@H](O)[C@@H]1O (stereo partly drawn) [L-fucose], the Kd (SapL1 [1]) was 225 ± 1.52 µM.

In the case of CO[C@@H]1O[C@@H](C)[C@@H](O)[C@@H](O)[C@@H]1O [α-methyl-L-fucoside, methyl-α-L-fucopyranoside], the Kd (SapL1 [2]) is reported as 190 ± 1.44 µM.

B1: Scedosporium apiospermum Lectin 1 (SapL1), carbohydrate recognition domain, residues 75-369 (domain or fragment)
chain: MSGVLQISFPAGIAAIRNNSSLRVYEAALDGGVREAQYEGRWAGGKPDNVIATGKIGTPIAATSVGFQYIRVYYVGADNKAREACWDGKGWYTGAFVKDVAPYSSIGAVFLGKNIVVRVYTQNHDNTIQEWVWDSPSTGWTAGANFGAALPGTAIAATSWGAGPYHIRVYFQDTNRNVIESGWDGSGWYTGGLKISNQSPRASLGATSWGESGSSLGIRLYYATQDNLIKEKAWDGGGGWYDGGFQQRSIPGSRVAAIPLPVLRVYLQNGTEVSGITEYAWNSGWVVGQAVLPPA
notes: the first 74 residues of the annotated protein, which the authors suspect to be a misannotation, are left out; In the crystal all 295 amino acids are visible except the N-terminal methionine; also called hypothetical protein XP_016640003.1; source: E. coli BL21trxB (DE3), pProNde vector, purified (IMAC, TEV cleavage, second His-trap pass); not shown: His6, N-terminal, cleaved
With B1 the “stoichiometry N” value [3] was 2.
